Legend:
[1] = biological target: SMO V386A (Homo sapiens, UniProt Q99835, V386A); test: Hedgehog signaling assay; assay type: cell-based; details: 100 nM vismodegib and SHH-N ligand
[2] = biological target: SMO H231R (Homo sapiens, UniProt Q99835, H231R); test: Hedgehog signaling assay; assay type: cell-based; details: 100 nM vismodegib and SHH-N ligand
[3] = biological target: SMO D473G (Homo sapiens, UniProt Q99835, D473G); test: Hedgehog signaling assay; assay type: cell-based; details: 100 nM vismodegib and SHH-N ligand
[4] = biological target: SMO W281C (Homo sapiens, UniProt Q99835, W281C); test: Hedgehog signaling assay; assay type: cell-based; details: 100 nM vismodegib and SHH-N ligand
[5] = biological target: SMO Q477E (Homo sapiens, UniProt Q99835, Q477E); test: Hedgehog signaling assay; assay type: cell-based; details: 100 nM vismodegib and SHH-N ligand
[6] = biological target: SMO F460L (Homo sapiens, UniProt Q99835, F460L); test: Hedgehog signaling assay; assay type: cell-based; details: SHH-N CM, 100 nM vismodegib
[7] = biological target: SMO V321M (Homo sapiens, UniProt Q99835, V321M); test: Hedgehog signaling assay; assay type: cell-based; details: SHH-N CM, 100 nM vismodegib
[8] = biological target: SMO L412F (Homo sapiens, UniProt Q99835, L412F); test: Hedgehog signaling assay; assay type: cell-based; details: SHH-N CM, 100 nM vismodegib
[9] = biological target: SMO Q635E (Homo sapiens, UniProt Q99835, Q635E); details: SHH-N CM, 10, 20 or 80 nM vismodegib
[10] = test system: advanced and metastatic BCCs; details: 2012, cited from earlier work
[11] = test system: syndromic BCCs in patients with Basal Cell Nevus Syndrome; details: Gorlin, inherited PTCH1 loss; ref Tang et al., 2012; cited from earlier work
[12] = test system: SMO-LBP and SMO-CA variants; test: HH pathway activity; details: […] nM vismodegib (4-fold greater than IC50), SHH-N CM

Chain of SMO V386A (Q99835 28-787 V386A): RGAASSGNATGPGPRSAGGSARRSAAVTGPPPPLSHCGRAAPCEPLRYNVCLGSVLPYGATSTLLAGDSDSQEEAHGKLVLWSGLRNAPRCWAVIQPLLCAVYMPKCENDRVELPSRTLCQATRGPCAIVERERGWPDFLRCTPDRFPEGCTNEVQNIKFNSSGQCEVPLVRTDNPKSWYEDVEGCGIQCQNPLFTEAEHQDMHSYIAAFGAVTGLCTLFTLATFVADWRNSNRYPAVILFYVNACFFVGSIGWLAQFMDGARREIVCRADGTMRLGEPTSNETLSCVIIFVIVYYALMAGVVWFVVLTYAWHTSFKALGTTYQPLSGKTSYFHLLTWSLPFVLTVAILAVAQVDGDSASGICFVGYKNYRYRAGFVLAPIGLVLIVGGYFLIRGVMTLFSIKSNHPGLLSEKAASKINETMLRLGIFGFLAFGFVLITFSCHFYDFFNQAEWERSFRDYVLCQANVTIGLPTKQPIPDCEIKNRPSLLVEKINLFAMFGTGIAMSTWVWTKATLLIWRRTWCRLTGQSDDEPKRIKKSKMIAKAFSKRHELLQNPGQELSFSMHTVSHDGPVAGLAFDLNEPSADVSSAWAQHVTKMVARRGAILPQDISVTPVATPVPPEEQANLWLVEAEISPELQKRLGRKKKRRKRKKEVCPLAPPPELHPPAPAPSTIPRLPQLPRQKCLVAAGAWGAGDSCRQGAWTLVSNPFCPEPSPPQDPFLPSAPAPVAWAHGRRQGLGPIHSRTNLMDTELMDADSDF
Chain of SMO V321M (Q99835 28-787 V321M): as the sequence (Q99835 28-787 V386A) above, with V294M, A359V counted along it
Chain of SMO D473G (Q99835 28-787 D473G): as the sequence (Q99835 28-787 V386A) above, with A359V, D446G counted along it
Chain of SMO Q635E (Q99835 28-787 Q635E): as the sequence (Q99835 28-787 V386A) above, with A359V, Q608E counted along it
Chain of SMO Q477E (Q99835 28-787 Q477E): as the sequence (Q99835 28-787 V386A) above, with A359V, Q450E counted along it
Chain of SMO H231R (Q99835 28-787 H231R): as the sequence (Q99835 28-787 V386A) above, with H204R, A359V counted along it
Chain of SMO L412F (Q99835 28-787 L412F): as the sequence (Q99835 28-787 V386A) above, with A359V, L385F counted along it
Chain of SMO F460L (Q99835 28-787 F460L): as the sequence (Q99835 28-787 V386A) above, with A359V, F433L counted along it
Chain of SMO W281C (Q99835 28-787 W281C): as the sequence (Q99835 28-787 V386A) above, with W254C, A359V counted along it

CS(=O)(=O)c1ccc(C(=O)Nc2ccc(Cl)c(-c3ccccn3)c2)c(Cl)c1 [vismodegib]
HH activity (Gli1 mRNA) in the presence of drug [1]: response similar to SMO WT
HH activity (Gli1 mRNA) in the presence of drug [2]: retained high levels of HH activity
HH activity (Gli1 mRNA) in the presence of drug [3]: retained high levels of HH activity
HH activity (Gli1 mRNA) in the presence of drug [4]: retained high levels of HH activity
HH activity (Gli1 mRNA) in the presence of drug [5]: retained high levels of HH activity
HH pathway activity, responsiveness to drug [6]: partially or completely unresponsive
HH pathway activity, responsiveness to drug [7]: partially or completely unresponsive
HH pathway activity, responsiveness to drug [8]: partially or completely unresponsive
HH pathway activity, resistance at low drug concentrations [9]: resistance at low but not high vismodegib concentrations
patients developing resistance during the first year ([10]; additional to non-responders, ref Chang and Oro): 20%
overall response rate ([10]; advanced and metastatic BCCs, ref Axelson et al., 2013, Sekulic et al.): 48%
clinical response [11]: respond to vismodegib and have a low rate of acquired resistance
HH pathway activity (Gli1 mRNA) in the presence of SMO variants [12]: partial or complete resistance
